Test results taken from PubChem BioAssay AID292 (DTP/NCI, 2004).
“And” between values parts separate entries of the source, which are not always exact repeats. Identical values can stand only once. Inconclusive results and toxic doses are left out.

Test system: B6C3F1 mice, ip Sarcoma M5076, median survival T/C
Test: NCI In Vivo Anticancer Drug Screen. Data for tumor model Sarcoma M5076 (intraperitoneal) in B6C3F1 mice
Conditions: endpoint: median survival time, higher = longer survival
Procedure, shortened: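 Mice carrying the transplanted tumour received compound treatment. Survival was recorded, and each value is the treated-group measurement divided by that of the vehicle-dosed control group.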

[1] = dose: 12.5 mg/kg/injection, schedule: Q04DX004 (ip), vehicle: saline with Tween-80
[2] = dose: 25.0 mg/kg/injection, schedule: Q04DX004 (ip), vehicle: saline with Tween-80
[3] = dose: 50.0 mg/kg/injection, schedule: Q04DX004 (ip), vehicle: saline with Tween-80
[4] = dose: 100.0 mg/kg/injection, schedule: Q04DX004 (ip), vehicle: saline with Tween-80
[5] = dose: 200.0 mg/kg/injection, schedule: Q04DX004 (ip), vehicle: saline with Tween-80
[6] = dose: 400.0 mg/kg/injection, schedule: Q04DX004 (ip), vehicle: saline with Tween-80
[7] = dose: 800.0 mg/kg/injection, schedule: Q04DX004 (ip), vehicle: saline with Tween-80
[8] = dose: 37.5 mg/kg/injection, schedule: Q04DX004 (ip), vehicle: saline with Tween-80
[9] = dose: 75.0 mg/kg/injection, schedule: Q04DX004 (ip), vehicle: saline with Tween-80
[10] = dose: 50.0 mg/kg/injection, schedule: Q04DX004 (ip), vehicle: Klucel (hydroxypropylcellulose) (HPC)
[11] = dose: 100.0 mg/kg/injection, schedule: Q04DX004 (ip), vehicle: Klucel (hydroxypropylcellulose) (HPC)
[12] = dose: 200.0 mg/kg/injection, schedule: Q04DX004 (ip), vehicle: Klucel (hydroxypropylcellulose) (HPC)
[13] = dose: 400.0 mg/kg/injection, schedule: Q04DX004 (ip), vehicle: Klucel (hydroxypropylcellulose) (HPC)

## c1ccc2c(c1)[nH]c1c2c(N2CCOCC2)nn2cnnc12
[1]
  T/C: 92 % of control
[2]
  T/C: 88 % of control and 96 % of control
[3]
  T/C: 100 % of control
[4]
  T/C: 95 % of control
[5]
  T/C: 87 % of control

## C[C@H](N)C(=O)N[C@@H]1[C@H]2C(=C(O)C[C@@H](O)[C@@H]2O)C(=O)O[C@]1(C)C(Cl)Cl
dose: 2.16 mg/kg/injection, schedule: Q04DX004 (ip), vehicle: saline
  T/C: 159 % of control
dose: 3.6 mg/kg/injection, schedule: Q04DX004 (ip), vehicle: saline
  T/C: 179 % of control
dose: 6.0 mg/kg/injection, schedule: Q04DX004 (ip), vehicle: saline
  T/C: 152 % of control and 164 % of control
dose: 10.0 mg/kg/injection, schedule: Q04DX004 (ip), vehicle: saline
  T/C: 235 % of control

## ClC1(Cl)Cc2ccccc21
[3]
  T/C: 103 % of control
[4]
  T/C: 114 % of control
[5]
  T/C: 92 % of control
[6]
  T/C: 87 % of control

## COc1ccc(CNC(=O)C2C(=O)C(=O)N(Cc3ccc(OC)c(OC)c3)C2=O)cc1OC (stereo not given)
dose: 28.13 mg/kg/injection, schedule: Q04DX004 (ip), vehicle: Klucel (hydroxypropylcellulose) (HPC)
  T/C: 95 % of control
dose: 56.25 mg/kg/injection, schedule: Q04DX004 (ip), vehicle: Klucel (hydroxypropylcellulose) (HPC)
  T/C: 100 % of control
dose: 112.5 mg/kg/injection, schedule: Q04DX004 (ip), vehicle: Klucel (hydroxypropylcellulose) (HPC)
  T/C: 97 % of control
dose: 225.0 mg/kg/injection, schedule: Q04DX004 (ip), vehicle: Klucel (hydroxypropylcellulose) (HPC)
  T/C: 94 % of control
dose: 450.0 mg/kg/injection, schedule: Q04DX004 (ip), vehicle: Klucel (hydroxypropylcellulose) (HPC)
  T/C: 92 % of control

## NC(Cc1ccc[se]1)C(=O)O (stereo not given)
[1]
  T/C: 94 % of control
[2]
  T/C: 103 % of control
[3]
  T/C: 109 % of control

## O=C1C2CC(Cl)C(SSC3CC4C(=O)N(SC(Cl)(Cl)C(Cl)Cl)C(=O)C4CC3Cl)CC2C(=O)N1SC(Cl)(Cl)C(Cl)Cl (stereo not given)
[1]
  T/C: 97 % of control
[2]
  T/C: 95 % of control
[3]
  T/C: 98 % of control and 105 % of control
[4]
  T/C: 90 % of control and 97 % of control
[5]
  T/C: 102 % of control and 117 % of control
[6]
  T/C: 110 % of control
[7]
  T/C: 109 % of control

## CCn1c2ccc(N)cc2c2c3ncc4cccn4c3ccc21
[8]
  T/C: 101 % of control
[9]
  T/C: 94 % of control
dose: 150.0 mg/kg/injection, schedule: Q04DX004 (ip), vehicle: saline with Tween-80
  T/C: 97 % of control
dose: 300.0 mg/kg/injection, schedule: Q04DX004 (ip), vehicle: saline with Tween-80
  T/C: 89 % of control

## CC1CCC(NC(=O)N(CCCl)N=O)CC1 (stereo not given)
dose: 3.0 mg/kg/injection, schedule: Q01DX004 (ip), vehicle: Klucel (hydroxypropylcellulose) (HPC)
  T/C: 108 % of control
dose: 6.0 mg/kg/injection, schedule: Q01DX004 (ip), vehicle: Klucel (hydroxypropylcellulose) (HPC)
  T/C: 104 % of control
dose: 12.0 mg/kg/injection, schedule: Q01DX004 (ip), vehicle: Klucel (hydroxypropylcellulose) (HPC)
  T/C: 108 % of control
dose: 48.0 mg/kg/injection, schedule: Q04DX004 (ip), vehicle: Klucel (hydroxypropylcellulose) (HPC)
  T/C: 254 % of control

## N=C(N)Sc1cc(O)ccc1O
dose: 43.75 mg/kg/injection, schedule: Q04DX004 (ip), vehicle: saline with Tween-80
  T/C: 110 % of control
dose: 87.5 mg/kg/injection, schedule: Q04DX004 (ip), vehicle: saline with Tween-80
  T/C: 109 % of control
dose: 175.0 mg/kg/injection, schedule: Q04DX004 (ip), vehicle: saline with Tween-80
  T/C: 111 % of control
dose: 350.0 mg/kg/injection, schedule: Q04DX004 (ip), vehicle: saline with Tween-80
  T/C: 110 % of control

## O=[N+]([O-])c1ccc(/C=C/C=C/C=C/C=C/c2ccc(S(=O)(=O)F)cc2Cl)c(Cl)c1
dose: 18.75 mg/kg/injection, schedule: Q04DX004 (ip), vehicle: saline with Tween-80
  T/C: 95 % of control
[8]
  T/C: 96 % of control
[9]
  T/C: 98 % of control

## N=C(N)c1ccc(N=NNc2ccc(C(=N)N)cc2)cc1
[2]
  T/C: 96 % of control
[3]
  T/C: 97 % of control

## COc1cc2c(c(OC)c1OC)-c1ccc(OC)c(=O)cc1[C@@H](N)CC2
dose: 5.0 mg/kg/injection, schedule: Q04DX004 (ip), vehicle: saline
  T/C: 119 % of control
dose: 5.0 mg/kg/injection, schedule: Q04DX004 (ip), vehicle: suspension in saline
  T/C: 116 % of control
dose: 8.6 mg/kg/injection, schedule: Q04DX004 (ip), vehicle: suspension in saline
  T/C: 123 % of control
dose: 10.0 mg/kg/injection, schedule: Q04DX004 (ip), vehicle: suspension in saline
  T/C: 118 % of control
dose: 20.0 mg/kg/injection, schedule: Q04DX004 (ip), vehicle: saline
  T/C: 152 % of control
dose: 24.0 mg/kg/injection, schedule: Q04DX004 (ip), vehicle: suspension in saline
  T/C: 123 % of control
dose: 40.0 mg/kg/injection, schedule: Q04DX004 (ip), vehicle: saline
  T/C: 157 % of control

## O=C(Nc1ccc(Cl)c(Cl)c1)C1C(=O)C(=O)N(c2ccc(Cl)c(Cl)c2)C1=O (stereo not given)
[10]
  T/C: 91 % of control
[11]
  T/C: 92 % of control
[12]
  T/C: 89 % of control

## O=C1N(CCN2CCC3(CC2)OCCO3)CCN1c1cc(Cl)cc(Cl)c1
dose: 25.0 mg/kg/injection, schedule: Q04DX004 (ip), vehicle: water
  T/C: 104 % of control
dose: 50.0 mg/kg/injection, schedule: Q04DX004 (ip), vehicle: water
  T/C: 102 % of control

## CCNC(=O)[B-][N+](C)(C)C
[3]
  T/C: 96 % of control
[4]
  T/C: 104 % of control
[5]
  T/C: 102 % of control
[6]
  T/C: 92 % of control

## N#CC1C(=O)NC(=O)C(C#N)C1c1ccc(Cl)cc1Cl (stereo not given)
[10]
  T/C: 93 % of control
[11]
  T/C: 95 % of control
[12]
  T/C: 100 % of control
[13]
  T/C: 96 % of control

## COc1ccc([N+](=O)[O-])cc1NC(=O)C1C(=O)C(=O)N(c2cc([N+](=O)[O-])ccc2OC)C1=O (stereo not given)
[10]
  T/C: 100 % of control
[11]
  T/C: 107 % of control
[12]
  T/C: 100 % of control

## O=C1CNC(=O)N1CN1CCOCC1
[10]
  T/C: 110 % of control
[11]
  T/C: 106 % of control
[12]
  T/C: 108 % of control
[13]
  T/C: 115 % of control
dose: 800.0 mg/kg/injection, schedule: Q04DX004 (ip), vehicle: Klucel (hydroxypropylcellulose) (HPC)
  T/C: 106 % of control

## CCn1c(-c2ccc(OC(C)=O)cc2)c(C)c2cc(OC(C)=O)ccc21
dose: 25.0 mg/kg/injection, schedule: Q04DX004 (ip), vehicle: Klucel (hydroxypropylcellulose) (HPC)
  T/C: 102 % of control
[10]
  T/C: 107 % of control
[11]
  T/C: 87 % of control
[12]
  T/C: 90 % of control

## COc1ccc(-n2[nH]c3c(cnc4ccccc43)c2=O)cc1
dose: 2.25 mg/kg/injection, schedule: Q04DX004 (ip), vehicle: saline with Tween-80
  T/C: 93 % of control
dose: 4.5 mg/kg/injection, schedule: Q04DX004 (ip), vehicle: saline with Tween-80
  T/C: 95 % of control
dose: 9.0 mg/kg/injection, schedule: Q04DX004 (ip), vehicle: saline with Tween-80
  T/C: 94 % of control
dose: 18.0 mg/kg/injection, schedule: Q04DX004 (ip), vehicle: saline with Tween-80
  T/C: 89 % of control
dose: 36.0 mg/kg/injection, schedule: Q04DX004 (ip), vehicle: saline with Tween-80
  T/C: 92 % of control

## Cc1cccc(-n2c(CC#N)n[nH]c2=S)c1
[3]
  T/C: 115 % of control
[4]
  T/C: 109 % of control
[5]
  T/C: 96 % of control
[6]
  T/C: 106 % of control
[7]
  T/C: 88 % of control

## COc1ccc(C2NC(=S)NC(=O)C2C#N)cc1OC (stereo not given)
[10]
  T/C: 95 % of control
[11]
  T/C: 100 % of control
[12]
  T/C: 106 % of control
[13]
  T/C: 105 % of control

## COc1ccc(/C=N/NC(=O)c2ccc(OCc3nc4ccccc4[nH]3)cc2)cc1
[2]
  T/C: 99 % of control
[3]
  T/C: 100 % of control
[4]
  T/C: 103 % of control
[5]
  T/C: 97 % of control
[6]
  T/C: 97 % of control

## Nc1ccc2ccc(NS(=O)(=O)N3CCCCC3)cc2c1
[3]
  T/C: 100 % of control
[4]
  T/C: 107 % of control
[5]
  T/C: 112 % of control
[6]
  T/C: 120 % of control
